Assay results published in ChEMBL document CHEMBL5244217, “β-Carboline alkaloid monomers and dimers: Occurrence, structural diversity, and biological activities” (Eur J Med Chem, 2018).
In brackets after ≈: the same amount, converted by molar mass.

Key:
[1] = test system: Mycolicibacterium fortuitum; assay: Antibacterial activity against Mycobacterium fortuitum ATCC 6841; assay type: functional
[2] = test system: Mycolicibacterium smegmatis; assay: Antibacterial activity against Mycobacterium smegmatis ATCC 14468; assay type: functional
[3] = test system: Mycolicibacterium smegmatis; assay: Antibacterial activity against Mycolicibacterium smegmatis MC2 2700; assay type: functional
Mycolicibacterium phlei = assay: Antibacterial activity against Mycolicibacterium phlei ATCC 11758; assay type: functional
Staphylococcus aureus [4] = assay: Antibacterial activity against Staphylococcus aureus 1199B; assay type: functional
Staphylococcus aureus [5] = assay: Antibacterial activity against Staphylococcus aureus XU212; assay type: functional
Staphylococcus aureus [6] = assay: Antibacterial activity against Staphylococcus aureus EMRSA-15; assay type: functional
Micrococcus luteus = assay: Antibacterial activity against Sarcina lutea; assay type: functional
[7] = test system: Human immunodeficiency virus 1; assay: Antiviral activity against HIV1 IIIB infected in human C8166 cells assessed as reduction in virus-induced cytopathic effect measured after 3 days by Syncytia assays; assay type: functional, organism-based; conditions: Human immunodeficiency virus 1, IIIB, C8166, 72 h
dengue virus type 2 = assay: Antiviral activity against DENV-2 strain New Guinea C infected in Vero cells assessed as reduction in virus yield measured after 48 hrs; assay type: functional, organism-based
HL-60 = assay: Cytotoxicity against human HL-60 cells; assay type: functional, cell-based
[8] = test system: Trypanosoma brucei brucei; assay: Antitrypanosomal activity against Trypanosoma brucei brucei; assay type: functional, organism-based
Plasmodium falciparum [9] = assay: Antimalarial activity against Plasmodium falciparum; assay type: functional, organism-based
Candida albicans = assay: Antimicrobial activity against Candida albicans; assay type: functional
Cryptococcus neoformans = assay: Antimicrobial activity against Cryptococcus neoformans; assay type: functional
Staphylococcus aureus [10] = assay: Antimicrobial activity against Staphylococcus aureus; assay type: functional
Bacillus subtilis = assay: Antibacterial activity against Bacillus subtilis; assay type: functional
Corynebacterium xerosis = assay: Antibacterial activity against Corynebacterium xerosis; assay type: functional
[11] = test system: Human immunodeficiency virus 1; assay: Antiviral activity against HIV1; assay type: functional, organism-based
Alpha-glucosidase = Alpha-glucosidase (Saccharomyces cerevisiae S288c, UniProt P53341+P38158+P07265); assay: Inhibition of Saccharomyces cerevisiae alpha-glucosidase activity using pNPG as substrate; assay type: protein assay
KB = assay: Cytotoxicity against human KB cells; assay type: functional; conditions: read-out: ED50 (the source's name)
MDA-MB-231 = assay: Cytotoxicity against human MDA-MB-231 cells; assay type: functional, cell-based
[12] = Selectivity index, ratio of IC50 for cytotoxicity against rat L6 cells to IC50 for Antimalarial activity against Plasmodium falciparum K1 strain; assay type: toxicity, cell-based; conditions: read-out: Selectivity Index
Plasmodium falciparum [13] = assay: Antimalarial activity against Plasmodium falciparum K1 strain; assay type: functional, organism-based

SMILES: N=C(N)NCCC[C@H]1NCCc2c1[nH]c1cc(Br)ccc21
- MIC [1]: 16 µg/mL (≈ 45.7 µM)
- MIC [2]: 16 µg/mL (≈ 45.7 µM)
- MIC [3]: 2 µg/mL (≈ 5.71 µM)
- MIC (Mycolicibacterium phlei): 8 µg/mL (≈ 22.8 µM)
- MIC (Staphylococcus aureus [4]): 16 µg/mL (≈ 45.7 µM)
- MIC (Staphylococcus aureus [5]): 8 µg/mL (≈ 22.8 µM)
- MIC (Staphylococcus aureus [6]): 64 µg/mL (≈ 183 µM)

SMILES: Oc1cccc2c1[nH]c1c(C3=C[C@@]4(O)CC/C=C\CCCCN5CC[C@@H]3[C@]3(C[C@@H]6/C=C\CCCCN6[C@H]34)C5)nccc12
- MIC (Micrococcus luteus): 0.91 µg/mL (≈ 1.61 µM)

SMILES: NC(=O)c1cc2c([nH]c3ccccc32)c(-c2ccc(CO)o2)n1
- EC50 [7]: 380 nM

SMILES: COc1ccc2c3ccnc(C)c3n(C)c2c1
- EC50 (dengue virus type 2): 3200 nM

SMILES: COc1ccc2c3c([nH]c2c1)[C@]12CC(C)(C)[C@@]4(C(=O)N1CC3)c1[nH]c3cc(OC)ccc3c1CCN24
- IC50 (HL-60): 5800 nM

SMILES: O[C@]12C=C(C3c4[nH]c5ccccc5c4CCN3CCc3nccc4c3[nH]c3ccccc34)[C@@H]3CCN(CCCC/C=C\CC1)C[C@@]31C[C@@H]3/C=C\CCCCN3[C@H]12 (some centres undefined)
- IC50 [8]: 0.27 µg/mL (≈ 0.361 µM)
- IC50 (Plasmodium falciparum [9]): 0.58 µg/mL (≈ 0.776 µM)

SMILES: CSc1c(C2=C(c3c[nH]c4ccc(O)cc34)C(=O)N3c4ccc(O)cc4C4C=C(C(=O)O)N=C2C43)n(C)c[n+]1C (centres undefined)
- MIC (Candida albicans): 8 µg/mL
- MIC (Cryptococcus neoformans): 8 µg/mL
- MIC (Staphylococcus aureus [10]): 8 µg/mL

SMILES: O[C@H]1[C@H]2[C@@H]3c4[nH]c5ccccc5c4CCN3CN3CCCC/C=C\CC[C@@]45CN(CCCC/C=C\CC[C@@]1(O)[C@H]34)CC[C@@H]25
- MIC (Micrococcus luteus): 2.8 µg/mL (≈ 4.79 µM)
- MIC (Bacillus subtilis): 2.8 µg/mL (≈ 4.79 µM)
- MIC (Corynebacterium xerosis): 5.7 µg/mL (≈ 9.75 µM)

SMILES: Oc1cccc2c3c([nH]c12)C(C1=C[C@@]2(O)CC/C=C\CCCCN4CC[C@@H]1[C@]1(C[C@@H]5/C=C\CCCCN5[C@H]12)C4)=NCC3
- MIC (Micrococcus luteus): 4 µg/mL (≈ 7.06 µM)

SMILES: Oc1ccc2[nH]c3c(C4=C[C@@]5(O)CC/C=C\CCCCN6CC[C@@H]4[C@@]4(C6)C[C@@]67CCC(CCCN6[C@H]45)O7)nccc3c2c1
- IC50 [11]: 2300 nM

SMILES: CSc1c(C2=C(c3c[nH]c4ccc(O)cc34)C(=O)N3c4ccc(O)cc4C4C=CN=C2C43)n(C)c[n+]1C (centres undefined)
- MIC (Candida albicans): 4 µg/mL
- MIC (Cryptococcus neoformans): 4 µg/mL
- MIC (Staphylococcus aureus [10]): 4 µg/mL

SMILES: O=C(CO)CCC(=O)c1nc(C(=O)O)cc2c1[nH]c1ccccc12
- IC50 (Alpha-glucosidase): 63.3 µg/mL (≈ 194 µM)

SMILES: O=c1ccc2nccc3c4ccccc4n1c23 [CANTHIN-6-ONE]
- MIC [1]: 16 µg/mL (≈ 72.7 µM)
- MIC [2]: 8 µg/mL (≈ 36.3 µM)
- MIC [3]: 8 µg/mL (≈ 36.3 µM)
- MIC (Mycolicibacterium phlei): 8 µg/mL (≈ 36.3 µM)
- MIC (Staphylococcus aureus [4]): 8 µg/mL (≈ 36.3 µM)
- MIC (Staphylococcus aureus [5]): 8 µg/mL (≈ 36.3 µM)
- MIC (Staphylococcus aureus [6]): 32 µg/mL (≈ 145 µM)

SMILES: CC(C)CC(N)c1nccc2c1[nH]c1cc(Br)ccc12 (centres undefined) [EUDISTALBIN A]
- EC50 (KB): < 3.2 µg/mL
- IC50 (MDA-MB-231): 2100 nM

SMILES: O=C(O)c1cc2c([nH]c3ccccc32)c(-c2ccc(CO)o2)n1 [FLAZINE]
- IC50 [7]: 2370 nM

SMILES: O[C@]12C=C(c3nccc4c3[nH]c3ccccc34)[C@@H]3CCN(CCCC/C=C\CC1)C[C@@]31C[C@@H]3/C=C\CCCCN3[C@H]12 [MANZAMINE A]
- IC50 [11]: 4200 nM

SMILES: Oc1ccc2[nH]c3c(C4=C[C@@]5(O)CC/C=C\CCCCN6CC[C@@H]4[C@]4(C[C@@H]7/C=C\CCCCN7[C@H]45)C6)nccc3c2c1 [MANZAMINE Y]
- MIC (Micrococcus luteus): 0.25 µg/mL (≈ 0.443 µM)

SMILES: C[n+]1ccc2c(c1)[nH]c1ccc(Cl)cc12 [NOSTOCARBOLINE]
- selectivity ratio [12]: 2500
- IC50 (Plasmodium falciparum [13]): 18 nM
